Measurements reported in publication PMC10511408, “Novel iodoquinazolinones bearing sulfonamide moiety as potential antioxidants and neuroprotectors” (Scientific Reports, 2023).
Like-named read-outs stand apart in the source and are kept apart here.

Legend:
[1] = target: acetylcholine esterase (AChE) (Homo sapiens, UniProt P22303); assay: biochemical
Description: The cholinesterase enzymes' inhibitory activity was evaluated using modified Osman et al.[45] method. Briefly, samples were initially dissolved in DMSO to achieve a concentration of 10 mg/mL. Then 0.1 mL of the sample was diluted to 1 mL methanol to reach the concentration of 1 mg/mL (concentration 1). From concentration (1), 0.1 mL was further diluted to 1 mL to reach the concentration of 0.1 mg/mL (concentration 2). Concentration 1 (1 mg/mL) will become 0.1 mg/mL inside the plate and concentration 2 will become 0.01 mg/mL due to the addition of the reagents of the assay that dilute the sample ten folds. […] Then 20 μL of the sample/standard solution was added followed by 140 μL of buffer (1). The mixture was allowed to stand for 15 min at room temperature.

[2] = Free radical scavenging activity (DPPH) assay; conditions: mean ± S.E (n = 3)
Description: The antioxidant activities of all newly synthesized compounds were measured as radical scavenging activities using 1,1-diphenyl-2-picrylhydrazyl (DPPH) (Sigma Chemical Co., Steinheim, Germany) and compared with ascorbic acid as a reference standard (Sigma-Aldrich Chemie GmbH, Taufkirchen, Germany)[46].
Where, 1 mL of the test compounds or ascorbic acid at concentrations (12.5, 25, 50 and 100 mg/mL) were mixed with 1 ml of the DPPH solution. The mixtures were incubated for 30 min at room temperature in dark. The absorbance was read using a JENWAY 6315 spectrophotometer (Keison Products, Chelmsford, England) at 517 nm against blank.
It was carried out in triplicate, and average values were used to determine the inhibitory percentage of DPPH according to the following equation: percent inhibition = [(B − A)/B]*100, where A is the absorbance of the compound or standard and B is the absorbance of blank. IC50 (µM) of each compound was calculated according to the nonlinear regression dose response-inhibition curve using Prism 5.03 (GraphPad, San Diego, CA, USA) and expressed as mean ± standard error (S.E).

[3] = Acute toxicity study (LD50); conditions: mouse, in vivo, ip; albino male mice, i.p.; read-out: LD50 (median lethal dose)
Description: Lethal dose fifty (LD50) was determined for the most promising compound 14 to estimate its acute toxicity in albino male mice. […] Consequently, one-tenth of this dose was selected as the therapeutic dose for further evaluation of the potential radioprotective effects of 14. This was following our previous studies[42],[63],[68].

[4] = system: irradiated mice; assay: Open field test in irradiated mice; type: in vivo; conditions: 14 at 30 mg/kg/day i.p. for 7 days before 5 Gy irradiation
Description: (§1) Twenty-one mice were blindly allocated into three groups (n = 7). The first group (control) was injected i.p. with 10% DMSO, daily, for 7 days. The second one (irradiated) was treated as a control, and after 1 h from the last DMSO injection, the mice were exposed to 5 Gy gamma radiation. A third group (Compound 14 + irradiation) received 30 mg/kg/day i.p. (1/10 LD50) of compound 14, daily for 7 days. Then on the last day, after 1 h of injection, animals were irradiated at a dose of 5 Gy. After 24 h. of the last injection, behavioral tests were carried out. Immediately after behavioral test, mice were anesthetized using urethane ([…] i.p.)[49] and sacrificed by cervical dislocation then brain tissues were dissected out, rinsed with ice-cold saline, and dried on a filter paper. Then it was homogenized in ice-cold 0.1 M phosphate buffer saline (pH = 7.4) and stored at – 80 °C for subsequent biochemical analysis.
(§2) All behavioral tests have been carried out under blind conditions to avoid any bias in evaluating the animal's behavior. Mice were allowed to a pre-test session a day before scarification for habituation.
This evaluates locomotors and exploratory activities in mice where, the apparatus is transparent walls and a white floor 30 × 30 × 15 cm, divided into 16 squares of equal area. Each mouse was placed in the center of the open field test apparatus and allowed to roam freely for 5 min and latency time (ie, time taken to start moving) was detected as well as locomotion frequency as ambulation (ie, number of squares crossed), rearing frequency (ie, number of times the mice stand on its hind legs or with its forearm against the wall or in the free air)[50].

[5] = system: irradiated mice; assay: Forced swimming test in irradiated mice; type: in vivo; conditions: 14 at 30 mg/kg/day i.p. for 7 days before 5 Gy irradiation; compared to radiation only
Description: as §1, §2
Mice were independently forced to swim in an open cylindrical container (22 cm diameter, 40 cm height) that contained water (23–25 °C).

[6] = system: Myeloperoxidase (MPO); assay: MPO in brain tissue homogenate of irradiated mice (ELISA); type: in vivo; conditions: 14 at 30 mg/kg/day i.p. for 7 days, 5 Gy; compared to irradiated mice
Description: as §1
(§3) The antioxidant activity of compound 14 was measured by estimation of MPO activity using an ELISA Kit from MyBioSource Cat.No.: CSB-E08723m (Houston, TX., USA) as well as the level of GSH was evaluated using a colorimetric kit according to the method of E. Beutler[52].

[7] = system: Glutathione (GSH); assay: GSH level in brain tissue homogenate of irradiated mice; type: in vivo; conditions: 14 at 30 mg/kg/day i.p. for 7 days, 5 Gy; compared to irradiated mice
Description: as §1, §3

[8] = system: Acetylcholinesterase (AChE); assay: AChE in brain tissue homogenate of irradiated mice (ELISA); type: in vivo; conditions: 14 at 30 mg/kg/day i.p. for 7 days, 5 Gy; compared to radiation only
Description: (§4) Twenty-one mice were blindly allocated into three groups (n = 7). The first group (control) was injected i.p. with 10% DMSO, daily, for 7 days. […]. A third group (Compound 14 + irradiation) received 30 mg/kg/day i.p. (1/10 LD50) of compound 14, daily for 7 days. Then on the last day, after 1 h of injection, animals were irradiated at a dose of 5 Gy. After 24 h. of the last injection, behavioral tests were carried out. […]. Then it was homogenized in ice-cold 0.1 M phosphate buffer saline (pH = 7.4) and stored at – 80 °C for subsequent biochemical analysis.
(§5) Brain homogenates were used for measuring AChE using Mouse Acetylcholinesterase (AChE) ELISA Kit content using the Mouse Acetylcholinesterase ELISA Kit from MyBioSource Cat.No. MBS260553 (San Diego, CA., USA) according to the manufacturer’s instructions. The generation of norepinephrine (NE) in brain tissues was measured using an Eliza kit (MBS2600834) from MyBioSource (San Diego, CA, USA) according to the manufacturer’s instructions.

[9] = system: Norepinephrine (NE); assay: Norepinephrine in brain tissue homogenate of irradiated mice (ELISA); type: in vivo; conditions: 14 at 30 mg/kg/day i.p. for 7 days, 5 Gy; Fig. 6B
Description: as §4, §5

[10] = in vitro, mean ± S.E (n = 3), read-out: AChE IC50

acetylcholine esterase (AChE), sequence (P22303 32-614): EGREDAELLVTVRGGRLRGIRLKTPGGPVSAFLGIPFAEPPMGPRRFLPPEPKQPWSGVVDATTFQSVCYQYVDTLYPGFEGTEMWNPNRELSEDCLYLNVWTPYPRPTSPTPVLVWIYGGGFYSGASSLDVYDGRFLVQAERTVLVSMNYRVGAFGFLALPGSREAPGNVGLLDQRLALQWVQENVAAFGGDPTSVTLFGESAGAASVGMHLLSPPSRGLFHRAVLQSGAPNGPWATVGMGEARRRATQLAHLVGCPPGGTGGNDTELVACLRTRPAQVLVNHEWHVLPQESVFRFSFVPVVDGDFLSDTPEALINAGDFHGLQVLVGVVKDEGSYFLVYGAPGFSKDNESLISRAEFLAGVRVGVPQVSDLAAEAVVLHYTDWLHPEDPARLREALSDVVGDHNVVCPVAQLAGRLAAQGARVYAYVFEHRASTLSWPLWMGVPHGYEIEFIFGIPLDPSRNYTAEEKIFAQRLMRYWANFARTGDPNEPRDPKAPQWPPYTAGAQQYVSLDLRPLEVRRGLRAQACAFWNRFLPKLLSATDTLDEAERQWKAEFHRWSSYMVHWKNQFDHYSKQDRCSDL

| Compound | IC50 [1, 10] | IC50 [2] | further results |
| --- | --- | --- | --- |
| NS(=O)(=O)c1ccc(-n2c(SCC(=O)Nc3nccs3)nc3ccc(I)cc3c2=O)cc1 [Compound 6, 2-(6-Iodo-4-oxo-3-(4-sulfamoylphenyl)-3,4-dihydroquinazolin-2-ylthio)-N-(thiazol-2-yl) acetamide] | > 100 nM | 143.4 ± 1.12 µM | – |
| NS(=O)(=O)c1ccc(-n2c(SCC(=O)Nc3c[nH]c(=O)[nH]c3=O)nc3ccc(I)cc3c2=O)cc1 [Compound 15, N-(2,4-Dioxo-1,2,3,4-tetrahydropyrimidin-5-yl)-2-(6-iodo-4-oxo-3-(4-sulfamoylphenyl)-3,4-dihydroquinazolin-2-ylthio) acetamide] | > 100 nM | 136.3 ± 1.3 µM | – |
| CCOc1ccc2nc(NC(=O)CSc3nc4ccc(I)cc4c(=O)n3-c3ccc(S(N)(=O)=O)cc3)sc2c1 [Compound 7, N-(6-Ethoxybenzo[d]thiazol-2-yl)-2-(6-iodo-4-oxo-3-(4-sulfamoylphenyl)-3,4-dihydroquinazolin-2-ylthio) acetamide] | 90 ± 5.83 nM | 118.8 ± 0.92 µM | – |
| CN1C(=O)c2ccc(NC(=O)CSc3nc4ccc(I)cc4c(=O)n3-c3ccc(S(N)(=O)=O)cc3)cc2C1=O [Compound 17, 2-(6-Iodo 4-oxo-3-(4-sulfamoylphenyl)-3,4-dihydroquinazolin-2-ylthio)-N-(2-methyl-1,3-dioxoisoindolin-5-yl) acetamide] | 77.4 ± 1.29 nM | 127 ± 1.93 µM | – |
| NS(=O)(=O)c1ccc(-n2c(SCC(=O)Nc3cnccn3)nc3ccc(I)cc3c2=O)cc1 [Compound 14, 2-(6-Iodo-4-oxo-3-(4-sulfamoylphenyl)-3,4-dihydroquinazolin-2-ylthio)-N-(pyrazin-2-yl) acetamide] | 11.6 ± 0.45 nM | 95.5 ± 1.67 µM | LD50 [3]: 300 mg/kg; ambulation (open field test), effect of radiation abolished by [4]: 31%; open field parameters (latency, ambulation, rearing) [4]: normalized all open field parameters; decrease in latency time (open field test) ([4]; compared with mice that received radiation alone): 72.4%; decrease in mean immobility time (forced swimming test) [5]: 33%; decrease in brain MPO [6]: 39.6%; increase in brain GSH levels [7]: 17%; decrease in brain AChE [8]: 21%; Norepinephrine (NE), effect of radiation abolished by [9]: 25% |
| Cc1cc(NC(=O)CSc2nc3ccc(I)cc3c(=O)n2-c2ccc(S(N)(=O)=O)cc2)no1 [Compound 5, 2-(6-Iodo-4-oxo-3-(4-sulfamoylphenyl)-3,4-dihydroquinazolin-2-ylthio)-N-(5-methylisoxazol-3-yl) acetamide] | > 100 nM | 149.8 ± 1.26 µM | – |
| CCOC(=O)c1ccccc1NC(=O)CSc1nc2ccc(I)cc2c(=O)n1-c1ccc(S(N)(=O)=O)cc1 [Compound 12, Ethyl 2-(2-(6-iodo-4-oxo-3-(4-sulfamoylphenyl)-3,4-dihydroquinazolin-2-ylthio)acetamido)benzoate] | 60.7 ± 2.8 nM | 122.3 ± 0.92 µM | – |
| Cn1c(NC(=O)CSc2nc3ccc(I)cc3c(=O)n2-c2ccc(S(N)(=O)=O)cc2)cc(=O)n(C)c1=O [Compound 16, N-(1,3-Dimethyl-2,6-dioxo-1,2,3,6-tetrahydropyrimidin-4-yl)-2-(6-iodo-4-oxo-3-(4-sulfamoylphenyl)-3,4-dihydroquinazolin-2-ylthio) acetamide] | 86.2 ± 2.14 nM | 137.3 ± 0.29 µM | – |
| NS(=O)(=O)c1ccc(-n2c(SCC(=O)NC3CCN(Cc4ccccc4)CC3)nc3ccc(I)cc3c2=O)cc1 [Compound 11, N-(1-Benzylpiperidin-4-yl)-2-(6-iodo-4-oxo-3-(4-sulfamoylphenyl)-3,4-dihydroquinazolin-2-ylthio) acetamide] | 23.9 ± 1.41 nM | 109 ± 1.09 µM | – |
| NS(=O)(=O)c1ccc(-n2c(SCC(=O)Nc3nc4ccc([N+](=O)[O-])cc4s3)nc3ccc(I)cc3c2=O)cc1 [Compound 8, 2-(6-Iodo-4-oxo-3-(4-sulfamoylphenyl)-3,4-dihydroquinazolin-2-ylthio)-N-(6-nitrobenzo[d]thiazol-2-yl) acetamide] | > 100 nM | 177 ± 1.99 µM | – |
| CCOC(=O)N1CCC(NC(=O)CSc2nc3ccc(I)cc3c(=O)n2-c2ccc(S(N)(=O)=O)cc2)CC1 [Compound 10, Ethyl 4-(2-(6-iodo-4-oxo-3-(4-sulfamoylphenyl)-3,4-dihydroquinazolin-2-ylthio)acetamido) piperidine-1-carboxylate] | – | 154.9 ± 1.24 µM | IC50 [1]: > 100 nM |
| CCOC(=O)c1cccc(NC(=O)CSc2nc3ccc(I)cc3c(=O)n2-c2ccc(S(N)(=O)=O)cc2)c1 [Compound 13, Ethyl 3-(2-(6-iodo-4-oxo-3-(4-sulfamoylphenyl)-3,4-dihydroquinazolin-2-ylthio)acetamido)benzoate] | 74.8 ± 3.06 nM | 129.1 ± 1.03 µM | – |
| O=C1O[C@H]([C@@H](O)CO)C(O)=C1O [Ascorbic acid, ascorbic acid, reference compound] | – | 112.8 ± 1.03 µM | – |
| NS(=O)(=O)c1ccc(-n2c(SCC(=O)NN3CCOCC3)nc3ccc(I)cc3c2=O)cc1 [Compound 9, 2-(6-Iodo-4-oxo-3-(4-sulfamoylphenyl)-3,4-dihydroquinazolin-2-ylthio)-N-morpholinoacetamide] | > 100 nM | 148 ± 1.53 µM | – |
